Tested on: MC38 colon carcinoma cells
Assay: Syngeneic MC38 tumor model (tumor volume monitoring)
Type: in vivo, C57/BL6 mice
Conditions: MCT4 inhibitor 30 mg/kg p.o. qd, bintrafusp alfa 492 μg/animal i.v. day 0, 3, 6; for % T/C: Day 20, versus Group 1 control (vehicle + mutant non-binding anti-PD-L1 antibody); for reduction of tumor growth: MC38 tumor-bearing C57/BL6 mice, study end day 20
Description: MC38 colon carcinoma cells were obtained from Scripps Research Institute. Cells were tested and verified to be free of adventitious viruses and mycoplasma.
MC38 cells were cultured in DMEM containing 4.5 g/L D-glucose, 2 mM glutamine, and 110 mg/L sodium pyruvate and supplemented with 10% FBS. All cells were maintained at 37° C. and 5% CO2 in aseptic conditions. Cells were passaged upon reaching 50-85% confluence for a total of 2 to 15 passages prior to in vivo implantation. Cells were harvested by trypsinization with TrypLE Express and viable cell counts were determined using a Countess or […] cell counter and trypan blue exclusion staining.
Female C57/BL6 mice were obtained from Charles River Laboratories. They were inoculated (s.c. in the right dorsal flank) with 1×10^6 MC38 cells in 0.1 mL sterile PBS. Treatment was initiated when tumors reached an average volume of approximately 50-80 mm^3 (Day 0).
Test groups of the MC38 tumor-bearing mice (8 animals in each group) were treated with both vehicle (20% Kleptose (HPB) in 50 mM Phosphate pH 7.4 buffer) and a mutant, non-binding anti-PD-L1 antibody (Group 1, control), the MCT4 inhibitor described as Compound 367 in WO 2020/127960 (5-{2-[5-chloro-2-(5-ethoxyquinoline-8-sulfonamido)phenyl]ethynyl}-4-methoxypyridine-2-carboxylic acid; commercially available from, e.g., Selleck Chemicals) (Group 2), bintrafusp alfa (Group 3), or a combination of Compound 367 and bintrafusp alfa (Group 4). In Group 1 (Control Group) the vehicle was administered at 10 ml/kg animal weight, p.o. once daily and Mut PD-L1 i.v. at day 0, 3, and 6 (400 μg/animal). In Groups 2 and 4 the MCT4 inhibitor was administered at 30 mg/kg animal weight (p.o. administration, once per day (qd)). In Groups 3 and 4 bintrafusp alfa was administered 492 μg/animal at day 0, 3, and 6 (i.v. administration). At day 20 the study was terminated. Efficacy of the treatment was evaluated by monitoring tumor volume over the course of the study.

Row | Compound | % T/C [%] | reduction of tumor growth [%]
1 | bintrafusp alfa: anti-PD-L1:TGFβRII fusion protein, CAS 1918149-01-5; light chain SEQ ID NO: 7, heavy chain SEQ ID NO: 8 | 79.7 | 20
2 | CCOc1ccc(S(=O)(=O)Nc2ccc(Cl)cc2C#Cc2cnc(C(=O)O)cc2OC)c2ncccc12 [MCT4 inhibitor, 5-{2-[5-chloro-2-(5-ethoxyquinoline-8-sulfonamido)phenyl]ethynyl}-4-methoxypyridine-2-carboxylic acid] | 79.1 | 20

— patent publication US20240050563A1, “Combination Treatment of Cancer” (Ares Trading S.A., priority 2020, published 2024)
